Like-named read-outs stand apart in the source and are kept apart here.
Experiment: Phase 1 single escalating intravenous dose study, safety and pharmacokinetics
Format: in vivo, human
Details: for C5 / concentration at 5 min: concentration at 5 minutes; for concentration at 5 min: male, human, whole blood, read-out: C5
Experimental: In the present, first-time-in-man study, the safety and pharmacokinetics of zotarolimus were investigated following intravenous bolus administration of zotarolimus over a 100 to 900 μg dose range. The intravenous bolus dose administration would mimic the most rapid unexpected release of zotarolimus from drug-coated stents in vivo.
This was a Phase 1, single escalating dose, double-blind, randomized, placebo-controlled, single-center study. Sixty (60) adult healthy males were divided into 5 IV dose groups of 100, 300, 500, 700, and 900 μg.
Subjects were randomly assigned to receive a single intravenous dose of zotarolimus or a matching intravenous placebo under fasting conditions, as shown in the dosing scheme shown in Table 9.
Higher doses were administered after evaluating the safety data from the preceding lower dose groups. The treatment groups were separated by at least 7 days. For safety reasons, each treatment group was divided into two cohorts of six subjects and the doses of the two cohorts of a group were separated by at least 1 day.
Doses were administered as IV bolus over 3 minutes, with 8 subjects. Four subjects received zotarolimus and 4 subjects received placebo in each dose group. Blood was sampled for 168 hours and concentrations of zotarolimus measured using LC-MS/MS with a LOQ of 0.20 ng/mL
Seven (7)-mL blood samples were collected by venipuncture into evacuated collection tubes including edetic acid (EDTA) prior to dosing (0 hour) and at 0.083 (5 min), 0.25, 0.5, 1, 2, 4, 8, 12, 16, 24, 36, 48, 72, 96, 120, 144, and 168 hours after dosing on Study Day 1.
Blood concentrations of zotarolimus were determined using a validated liquid/liquid extraction HPLC tandem mass spectrometric method LC-MS/MS). […] AU calibration curves had coefficient of determination (r^2) values greater than or equal to 0.9923.
Safety was evaluated based on adverse event, physical examination, vital signs, ECG, injection site and laboratory tests assessments.
Pharmacokinetic parameter values of zotarolimus were estimated using noncompartmental methods.
To investigate the questions of dose proportionality and linear pharmacokinetics, an analysis of covariance (ANCOVA) was performed. Subjects were classified by dose level, and body weight was a covariate. The variables analyzed included β, Vdβ, dose-normalized C5, and logarithms of dose-normalized AUC0-last and dose-normalized AUC0-inf. The primary test of the hypothesis of invariance with dose was a test on dose-level effects with good power for a monotonic function of dose. In addition, the highest and lowest dose levels were compared within the framework of the ANCOVA.

[1] = 100 μg single IV bolus, healthy males, blood
[2] = 300 μg single IV bolus, healthy males, blood
[3] = 500 μg single IV bolus, healthy males, blood
[4] = 700 μg single IV bolus, healthy males, blood
[5] = 900 μg single IV bolus, healthy males, blood

## CO[C@H]1C[C@@H]2CC[C@@H](C)[C@@](O)(O2)C(=O)C(=O)N2CCCC[C@H]2C(=O)O[C@H]([C@H](C)C[C@@H]2CC[C@H](n3cnnn3)[C@H](OC)C2)CC(=O)[C@H](C)/C=C(\C)[C@@H](O)[C@@H](OC)C(=O)[C@H](C)C[C@H](C)/C=C/C=C/C=C/1C [zotarolimus]
[1]
  C5: 13.48 ng/mL
  concentration at 5 min: 13.5 ± 2.87 ng/mL
[2]
  C5: 36.71 ng/mL
  concentration at 5 min: 36.7 ± 9.82 ng/mL
[3]
  C5/Dose: 0.11 ± 0.0005 ng/mL/µg
  β (elimination rate constant): 0.017 ± 0.003 h⁻¹
[4]
  CL: 3.18 L/h
  C5: 88.73 ng/mL
  concentration at 5 min: 88.7 ± 5 ng/mL
[5]
  C5: 110.78 ng/mL
  concentration at 5 min: 111 ± 15.9 ng/mL
Single IV doses of 100 to 900 μg, healthy males
  tolerability: well tolerated at all doses
Single IV doses of 100 to 900 μg, reported by two or more subjects in any one treatment group
  most common treatment-emergent adverse events: injection site reaction and pain
With respect to C5 and AUC0-inf, IV
  dose proportionality of pharmacokinetics: dose-proportional over the 100-900 μg dose range
